Reference: ChEMBL document CHEMBL2390894, “Quantitative analysis of histone demethylase probes using fluorescence polarization” (J Med Chem, 2013)
pIC50, pKd: −log10 of the molar value. Active and inactive are the calls of the source. The rule behind the calls is not given here.

Legend:
[1] = biological target: T1, Lysine-specific demethylase 4A (Homo sapiens, UniProt O75164); experiment: Inhibition of JMJD2A (unknown origin)
T1 sequence (O75164 whole entry): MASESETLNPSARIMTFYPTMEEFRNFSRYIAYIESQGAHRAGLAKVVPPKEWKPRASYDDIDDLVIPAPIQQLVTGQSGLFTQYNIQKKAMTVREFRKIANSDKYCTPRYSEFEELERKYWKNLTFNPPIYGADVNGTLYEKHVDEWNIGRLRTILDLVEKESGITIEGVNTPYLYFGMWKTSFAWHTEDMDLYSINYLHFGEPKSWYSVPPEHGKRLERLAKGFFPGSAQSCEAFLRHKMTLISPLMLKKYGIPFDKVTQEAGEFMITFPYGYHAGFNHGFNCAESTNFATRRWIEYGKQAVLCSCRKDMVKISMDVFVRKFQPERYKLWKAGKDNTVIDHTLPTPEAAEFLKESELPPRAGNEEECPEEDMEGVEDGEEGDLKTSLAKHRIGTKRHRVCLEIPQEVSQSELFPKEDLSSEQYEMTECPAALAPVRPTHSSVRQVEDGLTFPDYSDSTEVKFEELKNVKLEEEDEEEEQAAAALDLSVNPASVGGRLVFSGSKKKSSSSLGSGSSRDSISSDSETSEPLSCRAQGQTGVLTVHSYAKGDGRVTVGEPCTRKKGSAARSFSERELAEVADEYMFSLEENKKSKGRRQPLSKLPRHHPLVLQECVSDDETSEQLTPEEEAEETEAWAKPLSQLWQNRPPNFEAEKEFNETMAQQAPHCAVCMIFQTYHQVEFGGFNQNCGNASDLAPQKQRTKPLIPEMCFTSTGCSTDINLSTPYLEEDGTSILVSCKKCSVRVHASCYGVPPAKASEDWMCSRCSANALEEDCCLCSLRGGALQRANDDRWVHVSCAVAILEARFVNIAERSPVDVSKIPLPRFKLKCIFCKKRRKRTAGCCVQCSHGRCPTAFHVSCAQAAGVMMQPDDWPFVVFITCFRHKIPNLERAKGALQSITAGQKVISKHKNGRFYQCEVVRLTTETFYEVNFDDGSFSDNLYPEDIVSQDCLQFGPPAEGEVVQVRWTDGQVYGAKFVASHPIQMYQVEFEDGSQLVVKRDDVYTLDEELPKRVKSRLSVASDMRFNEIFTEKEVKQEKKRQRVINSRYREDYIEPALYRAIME

[2] = biological target: T2, Lysine-specific demethylase 2A (Homo sapiens, UniProt Q9Y2K7); experiment: Inhibition of recombinant 6xHis-tagged JHDM1A (unknown origin) expressed in Escherichia coli BL21 using SAPATGGVK(Me2)KPHRYRPGTVAL as substrate incubated for 15 mins prior to substrate addition measured after 50 mins by rapid fire mass spectrophotometric analysis
T2 sequence (Q9Y2K7 whole entry): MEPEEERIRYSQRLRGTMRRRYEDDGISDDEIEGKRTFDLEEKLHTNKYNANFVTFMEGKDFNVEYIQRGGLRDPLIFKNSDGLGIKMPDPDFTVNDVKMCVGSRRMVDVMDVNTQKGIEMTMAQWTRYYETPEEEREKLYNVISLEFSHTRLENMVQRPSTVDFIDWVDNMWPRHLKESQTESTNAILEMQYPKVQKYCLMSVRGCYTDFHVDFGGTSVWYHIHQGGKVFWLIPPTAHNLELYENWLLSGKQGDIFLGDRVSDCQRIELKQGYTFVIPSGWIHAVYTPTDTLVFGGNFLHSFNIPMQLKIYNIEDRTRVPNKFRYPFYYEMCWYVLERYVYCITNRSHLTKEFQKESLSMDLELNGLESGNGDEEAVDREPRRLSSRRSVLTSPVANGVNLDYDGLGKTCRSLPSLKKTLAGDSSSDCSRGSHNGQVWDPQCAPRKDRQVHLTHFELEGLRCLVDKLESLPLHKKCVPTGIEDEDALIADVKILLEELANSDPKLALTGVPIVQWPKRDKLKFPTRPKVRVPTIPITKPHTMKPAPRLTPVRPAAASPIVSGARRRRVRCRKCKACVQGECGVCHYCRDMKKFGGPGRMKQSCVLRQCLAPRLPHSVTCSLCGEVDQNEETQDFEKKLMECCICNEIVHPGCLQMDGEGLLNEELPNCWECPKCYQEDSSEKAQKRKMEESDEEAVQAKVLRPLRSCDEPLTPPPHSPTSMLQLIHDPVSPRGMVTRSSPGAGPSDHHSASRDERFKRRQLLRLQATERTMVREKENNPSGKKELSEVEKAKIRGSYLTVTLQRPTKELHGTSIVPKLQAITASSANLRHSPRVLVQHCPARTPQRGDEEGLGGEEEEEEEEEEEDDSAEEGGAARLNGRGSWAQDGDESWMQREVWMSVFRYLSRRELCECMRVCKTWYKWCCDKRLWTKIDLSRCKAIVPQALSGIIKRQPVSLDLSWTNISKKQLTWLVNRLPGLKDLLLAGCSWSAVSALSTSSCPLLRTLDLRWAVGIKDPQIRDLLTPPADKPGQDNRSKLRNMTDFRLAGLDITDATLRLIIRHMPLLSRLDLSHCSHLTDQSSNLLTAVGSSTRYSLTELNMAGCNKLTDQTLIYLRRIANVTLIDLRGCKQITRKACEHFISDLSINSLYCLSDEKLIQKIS

[3] = biological target: T3, Lysine-specific demethylase 6B (Homo sapiens, UniProt O15054); experiment: Inhibition of recombinant 6xHis-tagged JMJD3 (unknown origin) expressed in Escherichia coli BL21
[4] = biological target: T2, Lysine-specific demethylase 2A; experiment: Binding affinity to recombinant 6xHis-tagged JHDM1A (unknown origin) expressed in Escherichia coli BL21 by fluorescence polarization assay in presence of Fe2+ and sodium ascorbate
[5] = biological target: T4, Lysine-specific demethylase 4A (Homo sapiens) (UniProt O75164); experiment: Binding affinity to JMJD2A (unknown origin) up to 10 uM by fluorescence polarization assay
T4 sequence (whole entry): T1 sequence (O75164 whole entry)

[6] = biological target: T2, Lysine-specific demethylase 2A; experiment: Binding affinity to recombinant 6xHis-tagged JHDM1A (unknown origin) expressed in Escherichia coli BL21 by fluorescence polarization assay in presence of Co2+
[7] = biological target: T3, Lysine-specific demethylase 6B; experiment: Binding affinity to recombinant 6xHis-tagged JMJD3 (unknown origin) expressed in Escherichia coli BL21 up to 10 uM by fluorescence polarization assay
[8] = biological target: T2, Lysine-specific demethylase 2A; experiment: Binding affinity to recombinant 6xHis-tagged JHDM1A (unknown origin) expressed in Escherichia coli BL21 by fluorescence polarization assay
[9] = biological target: T2, Lysine-specific demethylase 2A; experiment: Binding affinity to recombinant 6xHis-tagged JHDM1A (unknown origin) expressed in Escherichia coli BL21 by fluorescence polarization assay in presence of Ni2+

T3 sequence (O15054 whole entry): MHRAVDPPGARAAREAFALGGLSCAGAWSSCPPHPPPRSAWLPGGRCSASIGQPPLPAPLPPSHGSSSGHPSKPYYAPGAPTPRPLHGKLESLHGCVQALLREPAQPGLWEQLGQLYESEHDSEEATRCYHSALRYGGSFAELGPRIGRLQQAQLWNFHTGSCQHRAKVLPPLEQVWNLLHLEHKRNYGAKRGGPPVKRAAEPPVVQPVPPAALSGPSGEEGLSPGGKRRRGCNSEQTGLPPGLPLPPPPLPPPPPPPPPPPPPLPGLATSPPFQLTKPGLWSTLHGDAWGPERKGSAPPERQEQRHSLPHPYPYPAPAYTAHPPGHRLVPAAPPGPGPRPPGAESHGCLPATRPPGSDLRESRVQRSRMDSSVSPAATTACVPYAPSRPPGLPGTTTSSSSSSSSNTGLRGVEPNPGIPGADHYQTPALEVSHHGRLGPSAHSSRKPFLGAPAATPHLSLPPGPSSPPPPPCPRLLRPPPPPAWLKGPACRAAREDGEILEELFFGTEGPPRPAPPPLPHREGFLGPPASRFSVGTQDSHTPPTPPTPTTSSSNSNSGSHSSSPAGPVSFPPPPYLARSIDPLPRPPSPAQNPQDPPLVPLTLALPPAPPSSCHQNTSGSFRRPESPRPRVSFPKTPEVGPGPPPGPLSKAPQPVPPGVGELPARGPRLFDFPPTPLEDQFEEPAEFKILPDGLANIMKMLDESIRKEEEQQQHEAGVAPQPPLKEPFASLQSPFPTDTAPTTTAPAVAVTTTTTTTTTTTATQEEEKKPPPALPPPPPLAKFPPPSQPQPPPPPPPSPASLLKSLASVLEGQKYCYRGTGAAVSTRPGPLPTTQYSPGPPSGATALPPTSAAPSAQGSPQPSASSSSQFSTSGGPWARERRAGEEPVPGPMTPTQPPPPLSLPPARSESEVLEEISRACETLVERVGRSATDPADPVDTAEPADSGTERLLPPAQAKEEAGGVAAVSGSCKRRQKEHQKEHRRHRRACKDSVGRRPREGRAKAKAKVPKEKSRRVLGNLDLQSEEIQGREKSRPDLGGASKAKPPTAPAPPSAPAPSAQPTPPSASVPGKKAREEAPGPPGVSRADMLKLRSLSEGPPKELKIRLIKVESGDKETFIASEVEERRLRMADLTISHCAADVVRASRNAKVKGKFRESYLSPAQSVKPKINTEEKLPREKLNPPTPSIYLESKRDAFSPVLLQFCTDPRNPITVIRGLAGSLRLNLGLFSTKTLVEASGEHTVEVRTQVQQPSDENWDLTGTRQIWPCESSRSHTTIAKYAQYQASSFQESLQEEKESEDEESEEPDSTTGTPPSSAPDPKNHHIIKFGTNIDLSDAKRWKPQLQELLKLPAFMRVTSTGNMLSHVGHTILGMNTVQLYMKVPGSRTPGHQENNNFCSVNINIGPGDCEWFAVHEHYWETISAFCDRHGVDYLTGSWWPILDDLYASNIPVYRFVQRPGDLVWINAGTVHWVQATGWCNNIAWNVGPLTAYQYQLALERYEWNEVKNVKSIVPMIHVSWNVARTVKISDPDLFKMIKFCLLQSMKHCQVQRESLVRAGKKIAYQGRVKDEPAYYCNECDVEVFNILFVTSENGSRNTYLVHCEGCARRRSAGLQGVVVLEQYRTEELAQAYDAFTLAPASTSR

| pIC50 [1] | pIC50 [2] | pIC50 [3] | pKd [4] | Activity [5] | pKd [6] | Activity [7] | pKd [8] | pKd [9] | SMILES |
| --- | --- | --- | --- | --- | --- | --- | --- | --- | --- |
| 5.62 | 6.38 | 5.14 | – | – | – | – | – | – | NCc1ccc(CNCCCCN(O)C(=O)/C=C/C(=O)O)cc1 |
| 4.63 | 6.05 | 5.02 | 8.07 | Active | 7.66 | Active | 7.72 | 8.03 | NCc1ccc(CN(CCCCN(O)C(=O)/C=C/C(=O)O)C(=S)Nc2ccc(-c3c4ccc(=O)cc-4oc4cc(O)ccc34)c(C(=O)O)c2)cc1 |
| 5.48 | – | 5.51 | – | – | – | – | – | – | O=C(O)/C=C/C(=O)N(O)CCCCNCc1ccc(COC(=O)Nc2cccc3ccccc23)cc1 |
